This data set is described as follows: Solubility in solvents (qualitative). The data set is classed as physicochemical.

On to `CCOC(=O)Oc1ccc(/C=C/C=C/C(=O)NCCN2CCC(OC(c3ccccc3)c3ccccc3)CC2)cc1OC` [TMK 688], for which the solubility entry is, setting by setting: (in acetone) “can easily be dissolved”; (in acetonitrile) “can be well dissolved”; (in dichloroethane) “can easily be dissolved”; (in ethanol) “cannot be dissolved well”; (in water) “can hardly be dissolved”.
